From patent US11214563B2 (JANSSEN PHARMACEUTICA NV, priority 2019, dated 2022)
Each block holds one molecule with its values, some of them ahead of it.

Key:
[1] = biological target: human GluN1/GluN2B NMDA receptors (Homo sapiens (Human), UniProt Q05586+Q13224); assay: Cell-based calcium flux (FLIPR) assay on cloned human NR1/NR2B ion channels expressed in mammalian cells; details: standard assay, glutamate ~EC40, 10 μM glycine
Experimental: (§1) Effects of Test Articles on Cloned Human NR1/NR2B Ion Channels Expressed in Mammalian Cells
(§2) NMDA receptors are ion channels that are highly permeable to Ca^2+ ions, rendering it possible to monitor NMDA receptor function using cell-based calcium flux assay. In this assay, co-agonists glutamate and glycine are added to cells heterologously expressing human GluN1/GluN2B NMDA receptors to initiate cellular Ca^2+ influx. The time course of the changes in intracellular calcium is measured using a fluorescent dye and a FLIPR (Fluorometric Imaging Plate Reader) device.
(§3) Twenty four hours before measurements, the expression of the NMDA receptors in the stable cell line is induced with Tet-On inducible system in the presence of a non-selective NMDA receptor blocker. On the day of the experiment, cell culture media is carefully washed and the cells are loaded with Calcium 5 Dye Kit (Molecular Devices) in dye loading buffer containing 137 mM NaCl, 4 mM KCl, 2 mM CaCl2), 0.5 mM MgCl2(standard assay) or 1.5 mM MgCl2 (HTS assay), 10 mM HEPES and 5 mM D-glucose; pH 7.4. After 1 h incubation at the room temperature, the dye is washed away with the assay buffer (137 mM NaCl (standard assay) or 150 mM (HTS assay), 4 mM KCl (standard assay) or 3 mM (HTS assay), 2 mM CaCl2), 0.01 mM EDTA, 10 mM HEPES and 5 mM D-glucose; pH 7.4) In the FLIPR TETRA reader, various concentrations of the test compounds are added to the cells for 5 min while fluorescence is monitored to detect potential agonist activity. Next, co-agonists, glutamate and glycine are added for another 5 minutes. The concentration of glutamate corresponding to ˜EC40 (standard assay) or EC40 (HTS assay) is used to maximize the assay's signal window and ability to detect NMDA receptor antagonists and negative allosteric modulators. A saturating concentration (10 μM) of glycine is also present in the assay. A non-selective NMDA receptor antagonist, (+)MK-801 is used as a positive control for antagonist activity. The fluorescent signal in the presence of test compounds is quantified and normalized to the signal defined by the appropriate control wells.

[2] = Liver microsomal stability (extraction ratio); format: in vitro ADME; details: test compound 1 μM; 0.5 mg/mL liver microsomes; species not stated in Table 4 (method: mouse, rat, and human)
Experimental: Protocol for Liver Microsomal Stability (Extraction Ratio)
Liver Microsomal Stability. Microsomal stability studies (Chrovian et al, “H-Pyrrolo[3,2-b]pyridine GluN2B-Selective Negative Allosteric Modulators”. ACS Med Chem Lett. 2019 Jan. 10; 10(3):261-266) were conducted on a Biomek@ FX Robotic Liquid Handling Workstation (Beckman Coulter, Brea, Calif.), which consists of a 96-channel pipette head, a 12-position workstation deck, and a plate incubator. Test compounds (1 μM) were spiked in a reaction mix consisting of 100 mM potassium phosphate buffer (pH 7.4), 3 mM MgCl2, and 0.5 mg/mL liver microsomes from mouse, rat, and human (BD Gentest). The reaction was brought to 37° C. and initiated by adding NADPH to a final concentration of 1 mM. After mixing on the plate deck, […] aliquots were excised from the reaction plate at 0, 5, 10, 20, 40, and 60 min and quenched with four volumes of acetonitrile spiked with […] of the internal standard phenytoin. Quenched plates were centrifuged at 5700 rpm for 10 min at 4° C., and supernatant was diluted 1:3 in water before LC/MS/MS analysis. The compound half-lives were derived from plots of the ln of percent remaining compound over time to determine the intrinsic clearance. The predicted hepatic clearance was derived from the intrinsic clearance value using equations from the well-stirred model (Current Drug Metabolism, 2008, 9, 940-951), where no correction was made plasma protein binding and the blood to plasma concentration ratio was assumed to be one. The extraction ratio (ER) was calculated by dividing the predicted hepatic clearance by species blood flow (Q), where Q is 90, 55, and 21.7 mL/min/kg for mouse, rat and human, respectively

[3] = biological target: human GluN1/GluN2B NMDA receptors (Homo sapiens (Human), UniProt Q13224); assay: Cell-based calcium flux (FLIPR) assay on cloned human NR1/NR2B ion channels expressed in mammalian cells; details: standard assay, glutamate ~EC40, 10 μM glycine
Experimental: as §1, §2, §3

Chain of human GluN1/GluN2B NMDA receptors (Homo sapiens (Human), UniProt Q05586+Q13224) (Q13224 27-1484, other chains not shown): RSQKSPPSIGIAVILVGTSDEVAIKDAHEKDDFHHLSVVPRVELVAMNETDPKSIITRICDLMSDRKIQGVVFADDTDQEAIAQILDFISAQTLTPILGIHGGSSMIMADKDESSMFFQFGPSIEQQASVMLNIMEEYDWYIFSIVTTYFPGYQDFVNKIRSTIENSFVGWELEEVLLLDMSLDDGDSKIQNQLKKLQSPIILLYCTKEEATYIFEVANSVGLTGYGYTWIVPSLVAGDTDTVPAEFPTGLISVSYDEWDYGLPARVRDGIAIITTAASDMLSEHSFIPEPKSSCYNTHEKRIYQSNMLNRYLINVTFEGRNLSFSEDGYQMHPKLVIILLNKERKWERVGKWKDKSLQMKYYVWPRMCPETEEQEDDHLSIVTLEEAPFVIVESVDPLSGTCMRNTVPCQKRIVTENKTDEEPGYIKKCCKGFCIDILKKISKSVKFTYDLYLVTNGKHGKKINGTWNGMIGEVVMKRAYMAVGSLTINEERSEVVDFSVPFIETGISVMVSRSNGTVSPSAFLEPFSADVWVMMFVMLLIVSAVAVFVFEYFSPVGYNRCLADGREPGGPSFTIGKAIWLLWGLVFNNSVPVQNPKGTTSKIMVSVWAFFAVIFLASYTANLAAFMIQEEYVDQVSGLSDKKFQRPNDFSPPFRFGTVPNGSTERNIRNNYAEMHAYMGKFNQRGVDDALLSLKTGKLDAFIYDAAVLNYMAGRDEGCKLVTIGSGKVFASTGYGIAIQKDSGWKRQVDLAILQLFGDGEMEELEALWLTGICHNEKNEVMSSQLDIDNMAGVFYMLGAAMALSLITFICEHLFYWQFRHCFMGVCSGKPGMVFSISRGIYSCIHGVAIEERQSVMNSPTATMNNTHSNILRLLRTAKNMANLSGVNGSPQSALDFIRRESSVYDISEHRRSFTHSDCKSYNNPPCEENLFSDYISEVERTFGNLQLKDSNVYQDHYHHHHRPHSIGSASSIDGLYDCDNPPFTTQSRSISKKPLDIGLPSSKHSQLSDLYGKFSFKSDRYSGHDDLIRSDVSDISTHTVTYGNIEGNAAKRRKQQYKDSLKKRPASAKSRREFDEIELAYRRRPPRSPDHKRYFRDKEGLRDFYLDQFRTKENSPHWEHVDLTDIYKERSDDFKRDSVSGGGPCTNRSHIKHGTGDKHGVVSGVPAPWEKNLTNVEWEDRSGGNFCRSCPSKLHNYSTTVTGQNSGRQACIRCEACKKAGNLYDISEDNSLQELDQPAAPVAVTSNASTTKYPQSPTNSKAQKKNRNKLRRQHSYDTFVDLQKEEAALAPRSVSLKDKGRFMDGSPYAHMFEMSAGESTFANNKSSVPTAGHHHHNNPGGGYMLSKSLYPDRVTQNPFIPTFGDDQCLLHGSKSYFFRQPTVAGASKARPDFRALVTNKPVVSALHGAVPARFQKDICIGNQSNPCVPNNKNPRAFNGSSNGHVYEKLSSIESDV
Chain of human GluN1/GluN2B NMDA receptors (Homo sapiens (Human), UniProt Q13224) (Q13224 27-1484, other chains not shown): as above

- IC50 [1]: 0.037 µM
- Extraction Ratio @ 1 μM [2]: <0.298
SMILES: O=C(Cn1ncc2ncc(-c3ccc(F)c(C(F)F)c3)nc21)N1CCC1 [Example 24, 1-(Azetidin-1-yl)-2-[6-[3-(difluoromethyl)-4-fluoro-phenyl]pyrazolo[3,4-b]pyrazin-1-yl]ethanone]

- IC50 [3]: 0.059 µM
- Extraction Ratio @ 1 μM [2]: 0.45
SMILES: O=C(Cn1ncc2ncc(-c3ccc(F)c(OC(F)F)c3)nc21)N1CCC1 [Example 28, 1-(Azetidin-1-yl)-2-[6-[3-(difluoromethoxy)-4-fluoro-phenyl]pyrazolo[3,4-b]pyrazin-1-yl]ethanone]

- IC50 [1]: 0.037 µM
- Extraction Ratio @ 1 μM [2]: <0.298
SMILES: O=C(Cn1ncc2ncc(-c3ccc(F)c(C(F)F)c3)nc21)N1CC(F)C1 [Example 32, 2-[6-[3-(Difluoromethyl)-4-fluoro-phenyl]pyrazolo[3,4-b]pyrazin-1-yl]-1-(3-fluoroazetidin-1-yl)ethanone]

- IC50 [3]: 0.092 µM
- Extraction Ratio @ 1 μM [2]: 0.46
SMILES: O=C(Cn1ncc2ncc(-c3ccc(F)c(OC(F)F)c3)nc21)N1CC(F)C1 [Example 37, 2-[6-[3-(Difluoromethoxy)-4-fluoro-phenyl]pyrazolo[3,4-b]pyrazin-1-yl]-1-(3-fluoroazetidin-1-yl)ethanone]

Continued, molecule first:

SMILES: CN(C)C(=O)Cn1ncc2ncc(-c3ccc(F)c(C(F)F)c3)nc21 [Example 10, 2-[6-[3-(Difluoromethyl)-4-fluoro-phenyl]pyrazolo[3,4-b]pyrazin-1-yl]-N,N-dimethyl-acetamide]
- IC50 [1]: 0.042 µM
- Extraction Ratio @ 1 μM [2]: 0.41

SMILES: CN(C)C(=O)Cn1ncc2ncc(-c3ccc(Cl)c(C(F)F)c3)nc21 [Example 12, 2-[6-[4-Chloro-3-(difluoromethyl)phenyl]pyrazolo[3,4-b]pyrazin-1-yl]-N,N-dimethyl-acetamide]
- IC50 [1]: 0.036 µM
- Extraction Ratio @ 1 μM [2]: 0.54
